This is an account of results in US10912760B1, “Method of inhibiting cancer metastasis” (Chung Shan Medical University, priority 2019, dated 2021).

Experiment [1] deals with colon cancer cells (DLD-1, SW480 and SW620). The experiment in a line: Cell migration assay (transwell). The class given is cell-based, human. As for the experimental part: (§1) FIG. 1A: Effect of Camphorataimide B on migration and invasion of colon cancer cells. For migration assay, three colon cancer cells (DLD-1, SW480 and SW620) were pretreated with the indicated concentrations of Camphoratamide B for 24 hours, seeded onto transwell inserts, and then incubated for 12 hours. For invasion assay, the three colon cancer cells were pretreated with the indicated concentrations of Camphorataimide B for 24 hours, seeded onto Matrigel coated transwell inserts, and then incubated for 16 hours. After the treatments, numbers of cell on the lower surface membrane were stained, photographed and counted for quantitation of migrated and invaded cells.
(§2) FIG. 1B: Quantitation of effect of Camphorataimide B on migration and invasion of colon cancer cells. Quantitative results were presented as means±SD. Three independent experiments were performed for statistical analysis. * and ** represented P<0.01 and P<0.001 as compared to control, respectively.
(§3) Cells were pretreated with Camphorataimide B for 24 hours, harvested and then seeded on to 24-well cell culture inserts (8 μm pore size, Millipore). […] The stained cells were photographed and quantified form five random fields under microscopic examination. […] Cells invaded into the lower surface of the insert were quantitated as described earlier.

The subject of the next experiment is breast cancer cells. Particulars: reported; cited from earlier work.
For experiment [2], the system named is F-actin in colon cancer cells (DLD-1, SW480 and SW620). Put plainly: Immunofluorescence (phalloidin) staining of F-actin cytoskeleton. The class given is cell-based, human. Particulars: confocal microscope, compared to control. As for the experimental part: FIG. 1F: Effect of Camphorataimide B on cytoskeleton structure of colon cancer cells. The treated cells were seeded on a matrix-coated dish, and then F-actin (red) was detected by immunofluorescence staining, while the nuclei (blue) were detected by DAPI staining. Fluorescent images were acquired by using confocal microscopy. Scale bars, […].
Adherent cells were fixed on the glass slides using 4% ice-cold formaldehyde and reacted with blocking buffer and 0.5% Triton X-100 for 1 hour at room temperature. The reacted cells were incubated with primary antibodies overnight at 4° C. The bound primary antibodies were detected using Alexa Fluor-labeled secondary antibody (Jackson ImmunoResearch Laboratories, West Grove, Pa., USA). Alexa Fluor-conjugated phalloidin (Cell Signaling) was used for detection of polymerized F-actin microfilaments. Fluorescence image was acquired by using a laser scanning confocal microscope system (Zeiss 510 meta, Zeiss, Oberkochen, Germany).

The subject of experiment [3] is colon cancer cells (DLD-1, SW480 and SW620). Put plainly: Cell invasion assay (Matrigel coated transwell). The class given is cell-based, human. As for the experimental part: as §1, §2, §3
The test system of experiment [4] is Luciferase expressing DLD-1 cells. Put plainly: In vivo xenograft mice model: oral treatment after Luc-DLD-1 injection. Also noted: species or system Balb/c nude mice. The method, then: Luciferase expressing DLD-1 cells were suspended in phosphate buffered saline and injected into the spleen and peritoneal site of 5-week-old male Balb/c nude mice, respectively. After one week, the mice were orally administrated with 10 or 20 mg/kg Camphorataimide B or saline vehicle for one month (five mice for each group). IVIS luciferase in vivo images of liver and abdominal metastasis burden were monitored using bioluminescent imaging (BLI). Data represented mean±SD. * and ** represented P<0.01 and P<0.001 between the indicated groups, respectively.
FIG. 2G: Camphorataimide B suppressed hepatic and abdominal metastasis of DLD-1 cells in in vivo xenograft mice model. Luciferase expressing DLD-1 cells were suspended in phosphate buffered saline and injected into the spleen and peritoneal site of Balb/c nude mice, respectively. After one week, the mice were orally administrated with 10 or 20 mg/kg Camphorataimide B or saline vehicle (five mice for each group). After one month, the mice were sacrificed and the tissues were obtained and photographed.
FIG. 2H: Quantitation of results of FIG. 2G. Luciferase expressing DLD-1 cells were suspended in phosphate buffered saline and injected into the spleen and peritoneal site of Balb/c nude mice, respectively. After one week, the mice were orally administrated with 10 or 20 mg/kg Camphorataimide B or saline vehicle (five mice for each group). After 35 days, the mice were sacrificed and photographed. Total weight of tumor foci from the metastatic tissues were presented and quantitated. * and ** represented P<0.01 and P<0.001 between the indicated groups, respectively.
(§4) Male Balb/c nude mice aged four weeks were purchased from National Laboratory Animal Center of Taiwan (Taipei City, Taiwan) and maintained under supervision of the Institutional Animal Care and Use Committee at Chung Shan Medical University. […] The liver metastasis burden was monitored weekly by bioluminescence imaging (BLI). […]

The test system of the next experiment is DLD-1 cells. Put plainly: Ex vivo xenograft mice model: pretreated DLD-1 cells injected into spleen and peritoneal site. The class given is in vivo, Balb/c nude mice. The method, then: Luciferase expressing DLD-1 cells were pretreated with or without 30 μM Camphorataimide B for 24 hours, and then injected into the abdomen and spleen of Balb/c nude mice (five mice for each group), 35 days after implantation, the representative ex vivo images for liver and abdominal metastasis burden in xenografted animals were monitored using bioluminescent imaging (BLI).
FIG. 2B: Quantitation of results of FIG. 2A. Luciferase expressing DLD-1 cells were pretreated with or without 30 μM Camphorataimide B for 24 hours, and then injected into the abdomen and spleen of Balb/c nude mice. After 35 days implantation, the mice were photographed and tumor metastatic capability was analyzed. * and ** represented P<0.01 and P<0.001 as compared to untreated group, respectively.
FIG. 2C: Camphorataimide B suppressed hepatic and abdominal metastasis of DLD-1 cells in ex vivo xenograft mice model. DLD-1 cells were pretreated with or without 30 μM Camphorataimide B for 24 hours, and then spleeny and intraperitoneally injected into Balb/c mice, respectively. After 35 days, the mice were sacrificed and the tissues were obtained and photographed.
FIG. 2D: Quantitation of results of FIG. 2C. DLD-1 cells were pretreated with or without 30 μM Camphorataimide B for 24 hours, and then spleeny and intraperitoneally injected into Balb/c mice, respectively. After 35 days, the mice were sacrificed and photographed. Total weight of tumor foci from the metastatic tissues were presented and quantitated. *, P<0.01 and P<0.001 between the indicated groups.
FIG. 2E: Camphorataimide B suppressed metastasis in ex vivo xenograft mice model. […]
as §4

The test system of experiment [5] is colon cancer cells (DLD-1, SW480 and SW620). Put plainly: Cell adhesion assay. Conditions: pretreated 24 hours, Matrigel coated plates, 8 hours. The class given is cell-based, human. As for the experimental part: FIG. 1C: Effect of Camphorataimide B on adhesion of colon cancer cells. The three colon cancer cells were pretreated with the indicated concentrations of Camphorataimide B for 24 hours, seeded on a matrix coated monolayer dish, and then incubated for 8 hours. After washing with PBS, the attached cells were photographed and quantitated.
FIG. 1D: Quantitation of effect of Camphorataimide B on adhesion of colon cancer cells. Quantitative results were presented as means±SD. Three independent experiments were performed for statistical analysis. * and ** represented P<0.01 and P<0.001 as compared to control, respectively.
Cells were incubated with serial concentration of Camphorataimide B in a complete medium for 24 hours, transferred in to 12-well Matrigel coated plates (10^5 cells per well), and incubated at 37° C. for 8 hours. After the incubation, non-adherent cells were removed by PBS washing and the attached cells were photographed and quantitated using a cell counter.

The test system is the same in experiment [6]. Put plainly: Soft agar colony formation assay. The class given is cell-based, human. Conditions: 1 week. As for the experimental part: FIG. 1E: Effect of Camphorataimide B on colony formation of colon cancer cells. The three colon cancer cells were pretreated with indicated concentration of Camphorataimide B for 24 hours, seeded on soft agar plates, and then incubated for one week. After the treatments, the number of colonies was quantitated. Quantitative results were presented as means±SD. Three independent experiments were performed for statistical analysis. * and ** represented P<0.01 and P<0.001 as compared to control, respectively.
Cells suspended in agarose medium (10% FBS and 0.3 agarose in medium) containing serial concentrations of Camphorataimide Bwere plated onto 6-well plate which was pre-coated with a layer of solidified agarose (10% FBS and 0.6% agarose in medium), and then incubated at 37° C. in a humidified atmosphere containing 5% CO2 for 1 week. At the end of incubation, cell colonies were fixed, stained with crystal violet, and then photographed using Nikon Eclipse TE2000-U microscope equipped with a Nikon Digital Camera DXM1200 and those colonies with size greater than 0.1 mm were counted.

Setting [7] is: 20 and 30 μM, P<0.01 as compared to control.

Structures are written as SMILES.

For the compound `CC(C)=CCOc1ccc(C2=C(CC(C)C)C(=O)NC2=O)cc1` [Camphorataimide B], the inhibition of migration entry in experiment [1] (setting [7]) is “significant”. Also, in experiment [1] (pretreated 24 hours, indicated concentrations, transwell 12 hours), the “migration of colon cancer cells” value is recorded as “dose-dependently inhibited”. Also, in the experiment on breast cancer cells, the “tumor growth in breast cancer cells” value is listed as “can inhibit tumor growth”. The “regular architecture and expression level of F-actin” value in experiment [2] is “disrupted and decreased”. Further, in experiment [3] (setting [7]), the inhibition of invasiveness entry is reported as “significant”. In addition, the “invasiveness of colon cancer cells” value in experiment [3] (pretreated 24 hours, indicated concentrations, Matrigel transwell 16 hours) was “dose-dependently inhibited”. The “tumor size by bioluminescent imaging” value in experiment [4] (oral 10 and 20 mg/kg every three days for 1 month) is listed as “smaller tumors than tumor group”. The “tumor growth and metastatic ability” value in experiment [4] (oral 10 and 20 mg/kg every three days for 1 month, versus untreated tumors) is “grew slowly and less metastatic ability than untreated tumors”. Besides, the “increased gross weight of tumor” value in experiment [4] (oral 10 and 20 mg/kg every three days, after 35 days) was “notably inhibited”. In addition, in the experiment with DLD-1 cells (DLD-1 cells pretreated with 30 μM for 24 hours, after 35 days), the “attachment to colon tissue, number and size of tumors” value is “rarely attached to colon tissue and formed fewer number and smaller size of tumors”. Also, the “hepatic and abdominal metastatic lesion (hematoxylin and eosin staining)” value in the experiment on DLD-1 cells (DLD-1 cells pretreated with 30 μM for 24 hours, day 35, compared to untreated cells) was “significantly diminished”. The “liver and abdominal metastasis burden (bioluminescent imaging)” value in the experiment with DLD-1 cells (Luc-DLD-1 cells pretreated with 30 μM for 24 hours, 35 days after implantation) is “suppressed liver and abdominal metastasis”. Also, the adherent cell numbers result in experiment [5] is listed as “significantly reduced”. For the same compound, the colony numbers result in experiment [6] is given as “significantly reduced”.
